{"source": "patent US9765115B2", "about": "“Inhibitors of metastasis, methods of generating such inhibitors and their therapeutic applications” (Board of Supervisors of Louisiana State University acting …, priority 2011, dated 2017)", "tested_on": "ZO-1, claudin-3 and occludin", "assay": "Subcellular distribution of TJ proteins (immunofluorescence, TX-100 soluble/insoluble fractions)", "assay_type": "cell-based", "experimental": "Approximately 1×10^4 cells were grown to confluence on 0.4 μm 12-well Transwell™ filters (Costar, Mass.). After overnight serum starvation, cells were treated with or without 50 nM CT for 60 min, fixed with methanol and incubated with primary antisera (rabbit anti-ZO-1 IgG, Zymed, Calrsbad, Calif.; Claudin-3, CTR-FLAG). Immunostaining was visualized after incubation with TRITC-labelled secondary antibody (1:500). Controls with either non-immune goat IgG or no primary antisera were used in all studies. Digital photographs were taken with Retiga 1300 camera connected to a Nikon Optiphot-2 microscope equipped for epifluorescence, the images were captured at different wavelengths for TRITC and DAPI, were given red and blue pseudo colors respectively, and analyzed using IP Lab™ image analysis program.\nConfluent 100 mm plates of each PC sublines were serum starved overnight, and treated with or without 50 nM CT for various periods. Soluble extract (cytosolic) was obtained by incubating cells with 10 mM Tris-HCl, pH-7.4 (containing 150 mM NaCl, 2 mM CaCl2, protease-phosphatase inhibitors cocktail, 1% Nonidet P-40 and 1% Triton-X-100) for 30 min with occasional agitation. After washing the plates with TBS (containing protease inhibitors), the insoluble fraction (plasma membrane-associated) was scraped out from the plates with TBS containing 0.5% SDS, 1% Nonidet P-40, protease inhibitors. The triton X-100-insoluble fraction was collected after homogenizing and centrifuging at 14,000×g for 5 min at 4 C, and protein content of the supernatants was determined using Bio-Rad Reagent (Bio-Rad, Hercules, Calif.).\nThe lysate fractions were boiled for 5 min in 2× Laemmli buffer. The proteins were fractionated by SDS-PAGE electrophoresis, and electrically transferred to a nitrocellulose membrane. The blots were incubated the appropriate antisera followed by HRP-conjugated secondary antibody; and the blots were developed with ECL. To control for protein loading and transfer, the blots were stripped, and reprobed with either β-actin (insoluble) or α-tubulin (soluble) antibody. The same experiment was repeated two more times.\nTo test whether CT-mediated loss of TJ functionality is caused by disassembly of TJs, subcellular distribution of key TJ proteins was examined. Polarized PC-3CTRwt cells were treated with 50 nM CT for 30 min, and then processed for immunofluorescence with anti-FLAG (CTR), anti-ZO-1 and anti-claudin-3 antibodies.\nIt is known that junctional proteins are functional only when they are at cell-cell contacts on the membrane (Shin et al., 2006). Therefore, the subcellular distribution of TJ proteins was analyzed by immunoblotting TX-soluble (cytoplasmic) and TX-insoluble (membrane) fractions of cell lysates. […] The endocytosis of TJ proteins was rapid, and increased progressively throughout the experimental period of four hours. Specifically, translocation of ZO-1 from the insoluble to the soluble compartment was quicker and observed within 1 min of CT stimulus. Similar translocation of occludin was observed after ten min, and that of claudin-3 after 30 min of CT stimulus.\nTo test whether specific PKA inhibitors abrogate CT-induced TJ disassembly, two specific, well-characterized PKA inhibitors, mPKI and H-89, were used. PC-3CTRwt cells were treated with CT (50 nM for 30 min) in the presence of mPKI (100 nM) or H-89 (10 μM). Either of these inhibitors was added 15 min prior to the addition of CT. […]"}
{"substance": "calcitonin [CT]", "values": [{"measurement": "time to translocation of ZO-1", "setting": "CT 50 nM", "value": "≤ 1", "unit": "min"}, {"measurement": "time to translocation of claudin-3", "setting": "CT 50 nM", "value": 30, "unit": "min"}, {"measurement": "time to translocation of occludin", "setting": "CT 50 nM", "value": "after ten min"}, {"measurement": "localization of CTR, ZO-1 and claudin-3 (immunofluorescence)", "setting": "PC-3CTRwt cells, 50 nM CT, 30 min", "value": "loss of these proteins at cell-cell contacts and their internalization"}, {"measurement": "endocytosis of ZO-1, claudin 3 or occludin", "setting": "cells expressing CTRΔESS or ZO-1ΔPDZ3, CT 50 nM", "value": "could not induce endocytosis"}]}
